IC50 data for 38 compounds are collected here from US9006232B2, “Pyrimidone derivatives” (Mitsubishi Tanabe Pharma Corporation, priority 2009, dated 2015).

Structures can show the parent of a compound that is named as a salt.

Sequence of bovine cerebral TPK1 (A0A059UE90 1-419): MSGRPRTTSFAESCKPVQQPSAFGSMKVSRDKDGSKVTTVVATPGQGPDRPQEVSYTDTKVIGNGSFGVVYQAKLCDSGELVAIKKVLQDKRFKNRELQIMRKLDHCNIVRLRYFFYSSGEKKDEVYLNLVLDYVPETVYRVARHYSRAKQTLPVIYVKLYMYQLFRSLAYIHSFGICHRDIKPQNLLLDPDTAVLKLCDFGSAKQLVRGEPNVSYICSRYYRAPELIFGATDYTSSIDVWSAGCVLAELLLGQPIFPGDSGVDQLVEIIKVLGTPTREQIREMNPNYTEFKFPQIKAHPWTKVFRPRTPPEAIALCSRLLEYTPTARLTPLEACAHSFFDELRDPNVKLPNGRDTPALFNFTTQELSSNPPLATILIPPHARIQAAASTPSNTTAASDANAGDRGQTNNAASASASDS

One assay addresses bovine cerebral TPK1 (Bos taurus, UniProt A0A059UE90). Nature of the assay: Inhibitory activity against P-GS1 phosphorylation by bovine cerebral TPK1. The assay is classed as biochemical.
Conditions: not given
As for the experimental part:
Inhibitory Activity of the Medicament of the Present Invention Against P-GS1 Phosphorylation by Bovine Cerebral TPK1 […] The phosphorylation was started by adding ATP, and the reaction was conducted at 25° C. for 2 hours, and then stopped by adding 21% perchloric acid on ice cooling. The reaction mixture was centrifuged at 12,000 rpm for 5 minutes and adsorbed on P81 paper (Whatmann), and then the paper was washed four times with 75 mM phosphoric acid, three times with water and once with acetone. The paper was dried, and the residual radioactivity was measured using a liquid scintillation counter.
Regarding `Cn1c(O[C@H]2C[C@H]3CC[C@@H](C2)N3)nc(-c2ccncn2)cc1=O` [Compound No. 2.101, endo-2-(8-Aza-bicyclo[3.2.1]oct-3-yloxy)-1-methyl-1H-[4,4′] bipyrimidinyl-6-one], the IC50 is 115 to 342 nM.

Still in this assay, the particulars now being: P-GS1 phosphorylation, 41.7 μM [γ-32P] ATP, 25° C., 2 hours; read-out: IC50.
In the case of `CN1CCN(Cc2ccc([C@H]3CC[C@H](Oc4nc(-c5ccncn5)cc(=O)n4C)CC3)cc2)CC1` [Compound No. 1.903, 1-Methyl-2-{trans-4-[4-(4-methyl-piperazin-1-ylmethyl)phenyl]cyclohexyloxy}-1H-[4,4′] bipyrimidinyl-6-one], the IC50 was found to be 7.8 nM. Still for that read-out and setting: then `Cn1c(OC2CCN(c3ccc(-c4ccncc4)cc3)CC2)nc(-c2ccncc2F)cc1=O` [1.207, 6-(3-Fluoro-pyridin-4-yl)-3-methyl-2-[1-(4-pyridin-4-yl-phenyl)piperidin-4-yloxy]-3H-pyrimidin-4-one], with 32.6 nM. Turning to `CN(C)Cc1ccccc1N1CCC(Oc2nc(-c3ccncn3)cc(=O)n2C)CC1` [1.305, 2-[1-(2-Dimethylaminomethyl-phenyl)piperidin-4-yloxy]-1-methyl-1H-[4,4′]bipyrimidinyl-6-one], the IC50 was 58.6 nM. `Cn1c(OC2CCN(c3ccc(CN4CCOCC4)cc3)CC2)nc(-c2ccncn2)cc1=O` [1.213, 1-Methyl-2-[1-(4-morpholin-4-ylmethyl-phenyl)piperidin-4-yloxy]-1H-[4,4′]bipyrimidinyl-6-one]: the IC50 is 19.4 nM. Take `Cn1c(OCCc2ccccc2)nc(-c2ccncn2)cc1=O` [2.302, 1-Methyl-2-phenethyloxy-1H-[4,4′]bipyrimidinyl-6-one]: the IC50 was determined as 160 nM. On to `Cn1c(OCC2CCN(c3ccc(CN4CCCCC4)cc3)CC2)nc(-c2ccncc2F)cc1=O` [1.234, 6-(3-Fluoro-pyridin-4-yl)-3-methyl-2-[1-(4-piperidin-1-ylmethyl-phenyl)piperidin-4-ylmethoxy]-3H-pyrimidin-4-one], for which the IC50 worked out at 15.6 nM.

For `Cn1c(OC2CCN(c3ccccc3)CC2)nc(-c2ccncn2)cc1=O` [1.205, 1-Methyl-2-(1-phenyl-piperidin-4-yloxy)-1H-[4,4′]bipyrimidinyl-6-one], the half-maximal inhibitory concentration (IC50) worked out at 37.6 nM. The same measure, in the same setting: then `Cn1c(OC2CCN(c3ccc4c(c3)CN(Cc3ccccc3)C4)CC2)nc(-c2ccncn2)cc1=O` [1.227, 2-[1-(2-Benzyl-2,3-dihydro-1H-isoindol-5-yl)piperidin-4-yloxy]-1-methyl-1H-[4,4′]bipyrimidinyl-6-one], with 16 nM; and `Cn1c(OCCCc2cccnc2)nc(-c2ccncn2)cc1=O` [1.810, 1-Methyl-2-(3-pyridin-3-yl-propoxy)-1H-[4,4′]bipyrimidinyl-6-one], with 201 nM. On the same count and under the same terms, as for `Cn1c(OC2CCCN(c3cccc(F)c3)C2)nc(-c2ccncn2)cc1=O` (centres unmarked) [1.104, 2-[1-(3-Fluoro-phenyl)piperidin-3-yloxy]-1-methyl-1H-[4,4′] bipyrimidinyl-6-one], the figure is 8.9 nM; as for `Cn1c(OCCNc2ccccc2)nc(-c2ccncc2)cc1=O` [1.807, 3-Methyl-2-(2-phenylamino-ethoxy)-6-pyridin-4-yl-3H-pyrimidin-4-one], 99 nM; as for `Cn1c(OC2CCCN(c3ccc(C#N)cc3)CC2)nc(-c2ccncn2)cc1=O` (centres unmarked) [Compound No. 1.701, 4-[4-(1-Methyl-6-oxo-1,6-dihydro-[4,4′]bipyrimidinyl-2-yloxy)azepan-1-yl]benzonitrile], 30.3 nM. The same measure, in the same setting: then `Cn1c(OCCSc2ccccc2)nc(-c2ccncc2)cc1=O` [1.806, 3-Methyl-2-(2-phenylsulfanyl-ethoxy)-6-pyridin-4-yl-3H-pyrimidin-4-one], with 55 nM; and `Cn1c(OC2CCN(c3ccc(CN4CCNCC4)cc3)CC2)nc(-c2ccncn2)cc1=O` [Compound No. 1.202, 1-Methyl-2-[1-(4-piperazin-1-ylmethyl-phenyl)piperidin-4-yloxy]-1H-[4,4′]bipyrimidinyl-6-one], with 13 nM.

With `Cn1c(O[C@H]2CC[C@H](c3ccc(CO)cc3)CC2)nc(-c2ccncn2)cc1=O` [Compound No. 1.901, 2-[trans-4-(4-Hydroxymethyl-phenyl)cyclohexyloxy]-1-methyl-1H-[4,4′]bipyrimidinyl-6-one], the half-inhibitory concentration (IC50) came out at 115 nM. Still for that read-out and setting: as for `Cn1c(OC[C@H]2CCCN2c2ccc(F)cc2)nc(-c2ccncn2)cc1=O` [2.202, 2-[(2R)-1-(4-Fluoro-phenyl)pyrrolidin-2-ylmethoxy]-1-methyl-1H-[4,4′]bipyrimidinyl-6-one], the figure is 158 nM; as for `CN1CCC(N2CCC(Oc3nc(-c4ccncn4)cc(=O)n3C)CC2)CC1` [1.505, 1-Methyl-2-(1′-methyl-[1,4′]bipiperidinyl-4-yloxy)-1H-[4,4′] bipyrimidinyl-6-one], 394 nM; as for `Cn1c(OC2CCN(c3ccc(CN4CCCC4)cc3)CC2)nc(-c2ccncn2)cc1=O` [1.217, 1-Methyl-2-[1-(4-pyrrolidin-1-ylmethyl-phenyl)piperidin-4-yloxy]-1H-[4,4′]bipyrimidinyl-6-one], 12 nM. In the case of `Cn1c(OC2CCN(c3ccccc3CN3Cc4ccccc4C3)CC2)nc(-c2ccncn2)cc1=O` [1.304, 2-{1-[2-(1,3-Dihydro-isoindol-2-ylmethyl)phenyl]piperidin-4-yloxy}-1-methyl-1H-[4,4′] bipyrimidinyl-6-one], the half-inhibitory concentration (IC50) is 25.2 nM. With `CCCCCCc1ccc(Oc2nc(-c3ccncn3)cc(=O)n2C)cc1` [Compound No. 2.001, 2-(4-Hexylphenoxy)-1-methyl-1H[4,4′]bipyrimidinyl-6one], the IC50 came to 429 nM. Same read-out and setting: then `Cn1c(OCC2CCN(c3ccc(CN4CCCCC4)cc3)CC2)nc(-c2ccncc2)cc1=O` [1.232, 3-Methyl-2-[1-(4-piperidin-1-ylmethyl-phenyl)piperidin-4-ylmethoxy]-6-pyridin-4-yl-3H-pyrimidin-4-one], with 162 nM; and `Cn1c(OCCOc2ccccc2)nc(-c2ccncc2)cc1=O` [1.805, 3-Methyl-2-(2-phenoxy-ethoxy)-6-pyridin-4-yl-3H-pyrimidin-4-one], with 370 nM. For `Cn1c(O[C@H]2CC[C@@H](c3ccc(CO)cc3)CC2)nc(-c2ccncn2)cc1=O` [Compound No. 1.902, 2-[cis-4-(4-Hydroxymethyl-phenyl)cyclohexyloxy]-1-methyl-1H-[4,4′]bipyrimidinyl-6-one], the IC50 is 124 nM. Turning to `CN1Cc2ccc(N3CCC(Oc4nc(-c5ccncn5)cc(=O)n4C)CC3)cc2C1` [1.226, 1-Methyl-2-[1-(2-methyl-2,3-dihydro-1H-isoindol-5-yl)piperidin-4-yloxy]-1H-[4,4′]bipyrimidinyl-6-one], the IC50 was 23.7 nM. Regarding `CC(=O)N1CCN(Cc2ccc(N3CCC(Oc4nc(-c5ccncn5)cc(=O)n4C)CC3)cc2)CC1` [1.212, 2-{1-[4-(4-Acetyl-piperazin-1-ylmethyl)phenyl]piperidn-4-yloxy}-1-methyl-1H-[4,4′]bipyrimidinyl-6-one], the 50% inhibitory concentration (IC50) was determined as 64.9 nM. On the same count and under the same terms, as for `Cn1c(OC2CCN(c3cncnc3)CC2)nc(-c2ccncc2F)cc1=O` [1.229, 6-(3-Fluoro-pyridin-4-yl)-3-methyl-2-(1-pyrimidin-5-yl-piperidin-4-yloxy)-3H-pyrimidin-4-one], the figure is 216 nM; as for `Cn1c(OC2CCCN(S(=O)(=O)c3ccccc3)C2)nc(-c2ccncn2)cc1=O` (centres unmarked) [1.109, 2-(1-Benzenesulfonyl-piperidin-3-yloxy)-1-methyl-1H-[4,4′] bipyrimidinyl-6-one], 76.1 nM. Still for that read-out and setting: then `Cn1c(OC2CCCC2)nc(-c2ccncn2)cc1=O` [1.804, 2-Cyclopentyloxy-1-methyl-1H-[4,4′]bipyrimidinyl-6-one], with 100 nM. As to `CN1CCN(Cc2ccccc2N2CCC(Oc3nc(-c4ccncn4)cc(=O)n3C)CC2)CC1` [1.302, 1-Methyl-2-{1-[2-(4-methyl-piperazin-1-ylmethyl)phenyl]piperidin-4-yloxy}-1H-[4,4′]bipyrimidinyl-6-one], the IC50 came to 14.9 nM.

Consider `Cn1c(OC2CCN(c3cccnc3)CC2)nc(-c2ccncn2)cc1=O` [1.224, 1-Methyl-2-(1-pyridin-3-yl-piperidin-4-yloxy)-1H-[4,4′]bipyrimidinyl-6-one], for which the concentration for half-maximal inhibition (IC50) is 29.8 nM. The same measure, in the same setting: as for `Cn1c(O[C@H]2C[C@H]3CC[C@@H](C2)N3c2ccc(F)cc2)nc(-c2ccncn2)cc1=O` [Compound No. 2.102, endo-2-[8-(4-Fluoro-phenyl)-8-aza-bicyclo[3.2.1]oct-3-yloxy]-1-methyl-1H-[4,4′]bipyrimidinyl-6-one], the figure is 236 nM; as for `Cn1c(OCC2CCN(c3ccc(CN4CCCCC4)cc3)CC2)nc(-c2ccncn2)cc1=O` [1.233, 1-Methyl-2-[1-(4-piperidin-1-ylmethyl-phenyl)piperidin-4-ylmethoxy]-1H-[4,4′] bipyrimidinyl-6-one], 41.6 nM; as for `Cn1c(OC2CCN(c3ccc(N4CCNCC4)cc3)CC2)nc(-c2ccncn2)cc1=O` [1.208, 1-Methyl-2-[1-(4-piperazin-1-yl-phenyl)-piperidin-4-yloxy]-1H-[4,4′]bipyrimidinyl-6-one], 10.7 nM.

Turning to `CCC1CCCCC1Oc1nc(-c2ccncn2)cc(=O)n1C` (centres unmarked) [1.803, 2-(2-Ethyl-cyclohexyloxy)-1-methyl-1H-[4,4′]bipyrimidinyl-6-one], the IC50 came to 948 nM. On to `Cn1c(OC2CCN(c3ccc(CN4CCCCC4)cc3)CC2)nc(-c2ccncc2F)cc1=O` [1.216, 6-(3-Fluoro-pyridin-4-yl)-3-methyl-2-[1-(4-piperidin-1-ylmethyl-phenyl)piperidin-4-yloxy]-3H-pyrimidin-4-one], for which the IC50 is 10.9 nM. For `Cn1c(OCC2(c3ccccc3)OCCO2)nc(-c2ccncn2)cc1=O` [Compound No. 2.501, 1-Methyl-2-(2-phenyl-[1,3]dioxolan-2-ylmethoxy)-1H-[4,4′] bipyrimidinyl-6-one], the half-maximal inhibitory concentration (IC50) was found to be 386 nM.

Regarding `CN(C)Cc1ccc(CCOc2nc(-c3ccncc3)cc(=O)n2C)cc1` [Compound No. 2.402, 2-[2-(4-Dimethylaminomethyl-phenyl)ethoxy]-3-methyl-6-pyridin-4-yl-3H-pyrimidin-4-one dihydrochloride], the concentration for half-maximal inhibition (IC50) turned out to be 150 nM.

Usually IC50 stands for the concentration that gives 50% inhibition.
